Results published in US11026963B2, “Senolytic compositions and uses thereof” (Rubedo Life Sciences, Inc., priority 2018, dated 2021).

Columns and labels:
[1] = system: Normal human fibroblasts (IMR90); assay: Compound toxicity towards normal proliferative, senescent or quiescent fibroblasts (XTT cell viability assay); format: cell-based; conditions: IC50 against normal, proliferating cells divided by IC50 versus senescent (doxorubicin-induced) cells, three days treatment
Method: Normal human fibroblasts (IMR90) and patient-derived β-galactosidase (GLB1) or α-fucosidase (FUCA1) deficient cells were used to determine change in cell viability after exposure to compound. Cells were cultured with DMEM and 10% heat inactivated FBS under a controlled atmosphere of 5% carbon dioxide and 5% oxygen, […] and confirmed by the absence of senescence associated β-galactosidase (SA-β-Gal) staining and the capacity to re-enter the cell cycle. Senescence was induced by treatment with doxorubicin and confirmed by SA-β-Gal positive staining and the lack of DNA replication. Cells were treated with compound for three days. Cell viability was determined by mitochondrial dehydrogenase activity (XTT assay. Cayman Chemical) at ten concentrations of the tested compound. To generate dose-response curves, data was fitted to a four-parameter Hill function and the IC50 was determined at Y=0.5 viability. The senolytic index (S.I.) for each compound was determined by dividing the IC50 against normal, proliferating cells by the IC50 versus senescent cells. Senolytic index data is shown in Table 1 with compounds having S.I.<1 (−), S.I>1 (+), S.I.>5 (++) and S.I>10 (+++).

[2] = system: Mouse embryonic fibroblast cells (MEFs); assay: Viability of proliferating or senescent mouse embryonic fibroblasts (DAPI/PI staining); format: cell-based; conditions: 4 days; for toxicity towards senescent MEFs: doxorubicin-induced senescent MEFs, FIG. 1B; for cell viability / toxicity towards proliferating cells: proliferating MEFs, increasing concentrations (as high as 4 mM), FIG. 1A
Method: Mouse embryonic fibroblast cells were incubated with 300 nM doxorubicin for 24 hrs to induce senescence. Cells were washed and after incubation in media for 7 days, senescence was confirmed by staining for SA-β-Gal (Itahana et al., Methods Mol. Biol. 371 (2007) 21-31) and lack of incorporation of 5-ethynyl-2′-deoxyuridine (EdU) (see Yu et al., J. Immunol. Methods 350 (2009) 29-35).
Proliferating or senescent MEFs were treated with increasing concentrations of either FURGal (101) or 5-fluorouridine (FUR) (102) for 4 days. Cells were washed and stained with 4′,6-diamidino-2-phenylindole (DAPI) and propidium iodide (PI) and the fraction of viable cells was assessed from the ratio of PI-positive nuclei over PI-negative nuclei.

[3] = system: C57BL/6 mice; assay: Comparative toxicity of FURGal and FUR to C57BL/6 mice; format: in vivo; conditions: six days after treatment
Method: Equimolar doses of (101)(160 mg/kg) and (102) (100 mg/kg) were administered by single dose intraperitoneal injection to 2 groups of mice (N=3 each). Six days after treatment blood cell counts were determined by standard methods (FIG. 2A), bone marrow cells from femur were counted (FIG. 2B) and spleen weights (FIG. 2C) determined to compare the toxicity of the two drugs.

[4] = system: senescent C57BL/6 mouse hepatocytes; assay: Effect of FURGal on doxorubicin-induced senescent hepatocytes after in vivo administration; conditions: doxorubicin 25 mg/kg i.p.; FURGal 140 mg/kg 4 and 6 days later; livers after additional 4 days; FIG. 3C
Method: Two groups of C57BL/6 mice (N=5/group) were injected intraperitoneally with doxorubicin (25 mg/kg) to induce hepatocellular senescence. 4 and 6 days later groups were injected with PBS or FURGal (140 mg/kg) (101). A third group of 5 animals served as controls. After an additional 4 days livers were removed and sectioned (30 μm) before staining for SA-β-Gal (6 fields/animal were assessed) (FIGS. 3A and 3B).

[5] = system: senescent C57BL/6 mouse hepatocytes; assay: Effect of compound (113) on doxorubicin-induced senescent hepatocytes after in vivo administration
Method: Two groups of C57BL/6 mice (N=9/group) were injected intraperitoneally with doxorubicin (20 mg/kg) to induce hepatocellular senescence. 4 and 6 days later groups were injected i.p. with PBS or compound (113) (aka RBO-013) (2×20 mg/kg). A third group of animals served as controls. After an additional 2 days livers were removed and sectioned (30 μm) before staining for SA-β-Gal as previously described (FIGS. 4A and 4B). […] This senolytic effect was also corroborated by using quantitative PCR to detect mRNA levels of Cdkn2a (p16^INK4a) and IL-6 (N.B. Cdkn2a expression was exclusively detected in animals that received doxorubicin). Expression levels were reported relative to Actb as the reference gene.

[6] = system: senescent lung cells in C57BL/6 mice; assay: Senolytic effect of compound (119) on doxorubicin-induced senescent lung cells after in vivo administration; parameters: species or system mouse
Method: Four groups of C57BL/6 mice (N=9/group) were injected intravenously with doxorubicin (15 mg/kg) to induce senescence in lung tissue. Five days later groups were injected with vehicle or compound (119) (aka RBO-019) (10, 20 or 40 mg/kg i.v.). After an additional 3 days lungs were removed and the left lobes sectioned before staining for SA-β-Gal as previously described (FIGS. 5A and 5B). […] This senolytic effect was also corroborated by using quantitative PCR to detect mRNA levels of Cdkn2a (p16^INK4a). Expression levels were reported relative to Actb as the reference gene.

[7] = compared with seco product (78); Tietze et al.; cited from earlier work

O=c1[nH]c(=O)n([C@@H]2O[C@H](CO[C@@H]3O[C@H](CO)[C@H](O)[C@H](O)[C@H]3O)[C@@H](O)[C@H]2O)cc1F [(101), 5-fluorouridine-5′-O-β-D-galactopyranoside]
Senolytic Index (S.I.) [1]: +++ (S.I>10 (+++)) | toxicity towards senescent MEFs [2]: equitoxic | cell viability / toxicity towards proliferating cells [2]: completely non-toxic | toxicity towards platelets, neutrophils, lymphocytes and bone marrow cells ([3]; equimolar single i.p. dose: (101) 160 mg/kg, (102) 100 mg/kg, FIG. 2A, 2B): negligible toxicity | effects on spleen weight ([3]; single i.p. dose 160 mg/kg, in comparison to FUR (102) 100 mg/kg, FIG. 2C): minimal effects | senescent hepatocytes (SA-β-Gal staining of liver sections) [4]: numerical trend for a reduction

O=c1[nH]c(=O)n([C@@H]2O[C@H](CO)[C@@H](O)[C@H]2O)cc1F [(102), 5-fluorouridine, reference compound]
toxicity towards senescent MEFs [2]: equitoxic | cell viability / toxicity towards proliferating cells [2]: dramatically reduces cell viability

CC(=O)OC[C@H]1O[C@@H](ONC(=O)/C=C/c2ccc(CNCCc3c(C)[nH]c4ccccc34)cc2)[C@H](OC(C)=O)[C@@H](OC(C)=O)[C@H]1OC(C)=O [(113), (2R,3S,4S,5R,6S)-2-(Acetoxymethyl)-6-(((E)-3-(4-(((2-(2-methyl-1H-indol-3yl)ethyl)amino)methyl)phenyl)acrylamido)oxy)tetrahydro-2H-pyran-3,4,5-triyl Triacetate]
Senolytic Index (S.I.) [1]: +++ (S.I>10 (+++)) | senescent hepatocytes (as visualized by SA-β-Gal staining) ([5]; doxorubicin 20 mg/kg i.p., 2×20 mg/kg i.p. 4 and 6 days later, livers after additional 2 days, FIG. 4C): reduction | Cdkn2a (p16INK4a) gene expression in liver ([5]; quantitative PCR, relative to Actb, doxorubicin 20 mg/kg, 2×20 mg/kg i.p., FIG. 4D): significant reduction | IL-6 gene expression in liver ([5]; quantitative PCR, relative to Actb, doxorubicin 20 mg/kg, 2×20 mg/kg i.p., FIG. 4E): significant reduction

CC(=O)O[C@H]1[C@H](OC(C)=O)[C@H](ONC(=O)/C=C/c2ccc(CNCCc3c(C)[nH]c4ccccc34)cc2)O[C@@H](C)[C@H]1OC(C)=O [(119), (2S,3R,4R,5S,6S)-2-Methyl-6-(((E)-3-(4-(((2-(2-methyl-1H-indol-3-yl)ethyl)amino)methyl)phenyl)acrylamido)oxy)tetrahydro-2H-pyran-3,4,5-triyl triacetate]
Senolytic Index (S.I.) [1]: +++ (S.I>10 (+++)) | SA-β-Gal staining in lung sections ([6]; doxorubicin 15 mg/kg i.v., 10, 20 or 40 mg/kg i.v. five days later, lungs after additional 3 days, FIG. 5C): dose-dependent reduction | Cdkn2a gene expression in lung ([6]; quantitative PCR, relative to Actb, 10, 20 or 40 mg/kg i.v., FIG. 5D): dose-dependent reduction

C[C@@H](Cl)[C@@H]1CN(C(=O)c2cc3cc(OCCN(C)C)ccc3[nH]2)c2cc(O[C@@H]3O[C@H](CO)[C@H](O)[C@H](O)[C@H]3O)c3ccccc3c21 [Compound (77)]
fold less cytotoxic than hydrolyzed seco product (78) [7]: greater than 4000 fold
